According to patent US20110136911A1 (The Feinstein Institute for Medical Research, priority 2007, published 2011):

Experiments:
[1] = cited from earlier work
[2] = test system: LPS-stimulated RAW 267.4 cells; test: TNF secretion from LPS-stimulated RAW macrophages (ELISA); format: cell-based; conditions: 0.1 μg/ml LPS
Description: After 16 h, cell culture supernatants were collected for determination of TNF concentration by enzyme-linked immunosorbent assay (R & D Systems).

[3] = test system: leukocyte recruitment into air pouch; test: Air pouch model of acute inflammation (carrageenan); format: in vivo, mice; conditions: 4 mg/kg i.p. 15 min before 1% carrageenan, exudate after five hours
Description: Air pouches were produced according to standard procedures (Garcia-Ramallo et al., 2002) using C57bk6 mice (wild-type) or strain-matched mice lacking both copies of the MIF gene (MIF−/−) by injecting sterile air s.c. on day 0 (6 ml) and day 3 (3 ml). […] 15 min. later the animals were challenged by injecting 1 ml 1% carrageenan (in PBS) into the air pouch cavity. Five hours after carrageenan injection the animals were sacrificed, the pouches washed with PBS, exudates collected, and the total number of infiltrating cells quantitated.

[4] = test system: cecal ligation and puncture (CLP) model of sepsis; test: Cecal ligation and puncture (CLP) model of sepsis; format: in vivo, mice
Description: In anesthetized male Balb/C mice (ketamine 100 mg/kg and xylazine 8 mg/kg administered intramuscularly), abdominal access was gained via a midline incision. The cecum was isolated and ligated with a 6-0 silk ligature below the ileocecal valve, and the cecum punctured once with a 22 G needle, stool (approximately 1 mm^3) extruded from the hole, and the cecum placed back into the abdominal cavity. The abdomen was closed with two layers of 6-0 Ethilon sutures. Antibiotics were administered immediately after CLP (Premaxin 0.5 mg/kg, subcutaneously, in a total volume of 0.5 ml/mouse) and a single dose of resuscitative fluid (normal saline solution) was administered subcutaneously (20 ml/kg-body weight) immediately after CLP. […] Additionally, two injections were given on day 2 and day 3.
The cecal ligation and puncture experiment was repeated in a second group of animals. The experimental procedure was identical to that used in the preceding example.

Row | Structure (SMILES) | free (unbound) hormone as percentage of the total hormone in plasma [1] | inhibitory effect on TNF release compared with ISO-1 ([2]; 0.01-50 μM, 16 h) | leukocyte recruitment (number of infiltrating cells), wild-type mice ([3]; C57bk6 wild-type, p<0.04 relative to vehicle) | leukocyte recruitment (number of infiltrating cells), MIF knockout mice ([3]; MIF−/− mice, n.s.) | survival ([4]; male Balb/C mice, 4 mg/kg i.p. 24 hours after CLP, further injections on day 2 and day 3, n=10, vehicle 2/10) | survival, repeat experiment in a second group of animals ([4]; procedure identical to the first CLP experiment, FIG. 4) | IC50 ([2]; RAW267.4, 30 minutes preincubation, supernatants after 16 h, read-out: IC50, inhibition of the release of TNFα)
1 | N[C@@H](Cc1cc(I)c(Oc2cc(I)c(O)c(I)c2)c(I)c1)C(=O)O [L-T4, L-thyroxine] | about 0.03% | more potent than ISO-1 | – | – | – | – | –
2 | N[C@H](Cc1cc(I)c(Oc2cc(I)c(O)c(I)c2)c(I)c1)C(=O)O [D-T4, dextrothyroxine] | – | – | inhibits leukocyte recruitment | not in MIF knockout animals | 6/10 | dramatically increases survival | 1000 nM
